The target of this assay is α6β2* nicotinic acetylcholine receptor (α6 subunit) (Rattus norvegicus, UniProt P12390+P43143).

The source of these data is publication PMC4639919 (Neurochemical research, 2015).

α6β2* nicotinic acetylcholine receptor (α6 subunit), sequence (P43143 31-493 limits assumed): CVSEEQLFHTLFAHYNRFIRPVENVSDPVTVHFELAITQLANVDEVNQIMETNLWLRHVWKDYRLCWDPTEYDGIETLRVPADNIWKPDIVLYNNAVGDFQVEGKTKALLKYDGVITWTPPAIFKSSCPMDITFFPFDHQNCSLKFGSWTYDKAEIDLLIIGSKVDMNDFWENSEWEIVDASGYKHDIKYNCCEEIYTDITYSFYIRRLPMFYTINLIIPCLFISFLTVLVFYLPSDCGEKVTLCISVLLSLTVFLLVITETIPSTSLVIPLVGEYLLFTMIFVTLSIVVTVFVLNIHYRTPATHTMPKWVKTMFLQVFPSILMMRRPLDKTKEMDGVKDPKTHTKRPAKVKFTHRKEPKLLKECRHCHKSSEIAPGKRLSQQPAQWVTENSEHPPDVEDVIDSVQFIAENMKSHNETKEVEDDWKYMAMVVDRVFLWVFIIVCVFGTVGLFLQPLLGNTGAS
α6β2* nicotinic acetylcholine receptor (α6 subunit), sequence (P12390 25-500 limits assumed): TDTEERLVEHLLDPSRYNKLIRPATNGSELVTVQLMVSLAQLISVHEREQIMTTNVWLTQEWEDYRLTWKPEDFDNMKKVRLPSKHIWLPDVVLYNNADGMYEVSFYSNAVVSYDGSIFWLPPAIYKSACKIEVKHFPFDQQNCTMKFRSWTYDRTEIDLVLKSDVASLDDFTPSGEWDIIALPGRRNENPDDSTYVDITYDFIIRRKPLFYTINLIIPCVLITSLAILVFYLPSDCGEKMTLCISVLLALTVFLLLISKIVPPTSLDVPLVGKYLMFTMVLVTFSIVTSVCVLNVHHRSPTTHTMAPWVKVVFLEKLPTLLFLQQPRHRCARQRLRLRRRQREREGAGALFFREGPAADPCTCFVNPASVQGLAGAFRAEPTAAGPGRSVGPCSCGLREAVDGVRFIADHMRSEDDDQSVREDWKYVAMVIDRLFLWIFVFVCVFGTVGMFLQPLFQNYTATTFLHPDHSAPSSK

What is called IC50 is the concentration that gives 50% inhibition. Read a low IC50 as inhibition by little substance. Molecule `CC1=CCCN(CCCCCCCCCCN2CCC=C(C)C2)C1` [r-bPiDI, 1,10-bis(3-methyl-5,6-dihydropyridin-1(2H)-yl)decane] had an IC50 of 37.5 ± 18.7 nM.
